This is an account of results in patent US7332476B2, “Pyridyl substituted ketolide antibiotics” (Novartis AG, priority 2003, dated 2008).

The structures appear in SMILES notation. Converted amounts (≈) assume the structure as drawn.

Common to all, as to assay: MIC, broth microdilution (NCCLS)
In general terms: In broth dilution the organism is exposed to a series of concentrations in liquid medium.

In test [1] the test system is Streptococcus pneumoniae Stpn_49619. The format is cell-based. Conditions: Table 7, Strain ID F (Table 6): S. pneumoniae Stpn_49619. In short, it runs like this: (§1)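 NCCLS broth microdilution with 2-fold serial drug dilutions (methanol stocks diluted in water); inoculum 3×10^5–7×10^5 CFU/ml in CAMHB, with 2-5% lysed horse blood for S. pneumoniae. Incubation 18-24 h at 35° C., ambient air, except S. pneumoniae (5-10% CO2). MIC is lowest concentration preventing visible growth.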

Test [2] has as its system Staphylococcus epidermidis Step_14990. It counts as cell-based. Conditions: Table 7, Strain ID B (Table 6): S. epidermidis Step_14990; in µg/mL (unit assumed). As to the method:
(§2) Strains. The bacterial isolates listed in Table 4 were cultivated from −70° C. frozen stocks by two consecutive overnight passages (P1, P2) at 35° C. on 5% blood agar (Remel, Lenexa, Kans.). Chocolate agar (Remel) is used for Haemophilus influenzae. H. influenzae and Streptococcus pneumoniae are incubated in 5-10% CO2
(§3) Drug Stock Preparation. To determine the amount of solvent to be used to give the desired final concentration, the formula “weight obtained in mg/final concentration in mg/ml” will be used. It will give the amount of solvent in ml needed to be added to give the desired concentration. For example, if 2.5 mg/ml is the desired concentration and the weight of compound is 13.7 mg, then the amount of solvent to be added is […]. Methanol is used as the solvent to dissolve the test compounds. Further dilution of stock is done in sterile, deionized water. Drug stocks are kept frozen at −70° C., protected from light.
(§4) Susceptibility Testing. MICs are determined by the broth microdilution method in accordance with the NCCLS guidelines. In brief, organism suspensions are adjusted to a 0.5 McFarland standard to yield a final inoculum between 3×10^5 and 7×10^5 CFU/ml. Drug dilutions and inocula are made in sterile, cation adjusted Mueller-Hinton Broth (CAMHB) (Remel) for all but S. pneumoniae [CAMHB with 2-5% lysed horse blood (Remel)] and H. influenzae [Haemophilus Test Medium (Remel)]. An inoculum volume of 100 μl is added to wells containing 100 μl of broth with 2-fold serial dilutions of drug. All inoculated microdilution trays are incubated in ambient air at 35° C. for 18-24 hours, except for S. pneumoniae, and H. influenzae (both at 5-10% CO2).
(§5) Following appropriate incubation, the MIC is determined and the MIC is defined as the lowest concentration of the drug that prevented visible growth.
(§6) Strains. The bacterial isolates listed in Table 8 were cultivated from −70° C. frozen stocks by two consecutive overnight passages (P1, P2) at 35° C. on 5% blood agar (Remel, Lenexa, Kans.). Chocolate agar (Remel) is used for Haemophilus influenzae. H. influenzae and Streptococcus pneumoniae are incubated in 5-10% CO2
(§7) Following appropriate incubation, the MIC is determined and the MIC is defined as the lowest concentration of the drug that prevented visible growth. […] Antibacterial activity of representative compounds of the invention were compared against telitromycin.

Test [3] has as its system Haemophilus influenzae Hain_49247. It counts as cell-based. Conditions: Table 7, Strain ID M (Table 6): H. influenzae Hain_49247; unit assumed. As to the method:
as §2, §3, §4, §5, §6, §7

The subject of test [4] is Streptococcus pneumoniae Stpn_Mef S 3427. It counts as cell-based. To be noted: Table 7, Strain ID L (Table 6): S. pneumoniae Stpn_Mef S 3427. As to the method: as §2, §3, §4, §5, §6, §7
Test [5] concerns Enterococcus faecalis Enfa_29212. It counts as cell-based. Conditions: Table 7, Strain ID D (Table 6): E. faecalis Enfa_29212. As to the method: as §2, §3, §4, §5, §6, §7
Test [6] relates to Staphylococcus epidermidis Step_f50654. The format is cell-based. Conditions: Table 7, Strain ID C (Table 6): S. epidermidis Step_f50654; in µg/mL (unit assumed). As to the method: as §2, §3, §4, §5, §6, §7
Test [7] has as its system Streptococcus pneumoniae Stpn_Erm S 4297. The format is cell-based. Conditions: Table 7, Strain ID J (Table 6): S. pneumoniae Stpn_Erm S 4297. As to the method:
as §2, §3, §4, §5, §6, §7

In test [8] the test system is Staphylococcus aureus Stau_29213. The format is cell-based. To be noted: Table 7, Strain ID A (Table 6): S. aureus Stau_29213; in µg/mL (unit assumed). As to the method: as §2, §3, §4, §5, §6, §7
In test [9] the test system is Streptococcus pneumoniae Stpn_280-962. The format is cell-based. To be noted: Table 7, Strain ID H (Table 6): S. pneumoniae Stpn_280-962. In short, it runs like this: as §1
Test [10] deals with Streptococcus pneumoniae Stpn_Mef 5654. It counts as cell-based. Conditions: Table 7, Strain ID K (Table 6): S. pneumoniae Stpn_Mef 5654; in µg/mL (unit assumed). As to the method: as §2, §3, §4, §5, §6, §7
The subject of test [11] is S. pneumoniae Stpn_Erm 6849. The format is cell-based, Streptococcus pneumoniae. To be noted: Table 7, Strain ID I (Table 6): S. pneumoniae Stpn_Erm 6849; unit assumed. As to the method:
as §2, §3, §4, §5

Test [12] relates to Streptococcus pyogenes Stpy_8668. It counts as cell-based. Conditions: Table 7, Strain ID E (Table 6): S. pyogenes Stpy_8668. A digest of the protocol:
as §1

The test system of test [13] is Streptococcus pneumoniae Stpn_297-749. The format is cell-based. To be noted: Table 7, Strain ID G (Table 6): S. pneumoniae Stpn_297-749. A digest of the protocol: as §1

On to `CCC1OC(=O)C(C)C(=O)C(C)C(OC2OC(C)CC(N(C)C)C2O)C(C)(OC)CC(C)C(=O)C(C)C2C1OC(=O)N2CCCCn1ccc2ncccc21` (centres unmarked) [Compound 20m], for which the MIC result in test [1] was “=0.05”; in test [2] it was 0.1; in test [3] it was 1.56 µg/mL (≈ 2.02 µM); in test [4], “=0.05”; in [5], “=0.05”; in test [6] it was 0.2. The MIC result in test [7] is “=0.05”; in [8], 0.2; in test [9], “=0.05”; in test [10] it was 0.2; in [11], 0.2 µg/mL (≈ 0.259 µM); in [12], “=0.05”. Moreover, the MIC result in test [13] was “=0.05”.

For the molecule `CCC1OC(=O)C(C)C(=O)C(C)C(OC2OC(C)CC(N(C)C)C2O)C(C)(OC)CC(C)C(=O)C(C)C2C1OC(=O)N2CCCCc1cnc2ccccc2c1` (centres unmarked) [Compound 20n], the MIC entry was “=0.05” in test [1]; 0.2 in test [2]; 6.25 µg/mL (≈ 7.99 µM) in test [3]; 0.1 in test [4] (in µg/mL (unit assumed)); 0.1 in [5] (in µg/mL (unit assumed)); 0.4 in test [6]. Further, the MIC in test [7] (unit assumed) was 0.1 µg/mL (≈ 0.128 µM); in test [8] it was 0.4; in [9] it was “=0.05”; in test [10] it was 0.2; in test [11], 0.4 µg/mL (≈ 0.512 µM); in test [12] it was “=0.05”. Besides, in test [13], the MIC result is “=0.05”.

As to `CCC1OC(=O)C(C)C(=O)C(C)C(OC2OC(C)CC(N(C)C)C2O)C(C)(OC)CC(C)C(=O)C(C)C2C1OC(=O)N2CCCCc1cc(C)nc2ccccc12` (centres unmarked) [Compound 20o], the MIC entry in test [1] is “=0.05”; in [2], 0.2; in [3] it was 3.13 µg/mL (≈ 3.93 µM); in test [4] (in µg/mL (unit assumed)), 0.1; in test [5] (in µg/mL (unit assumed)), 0.1; in test [6], 0.2. Besides, the MIC is 0.1 µg/mL (≈ 0.126 µM) in test [7] (unit assumed); 0.2 in test [8]; “=0.05” in [9]; 0.2 in [10]; 1.56 µg/mL (≈ 1.96 µM) in [11]; “=0.05” in [12]. Further, in test [13], the MIC result was “=0.05”.

Take `CCC1OC(=O)C(C)C(=O)C(C)C(OC2OC(C)CC(N(C)C)C2O)C(C)(OC)CC(C)C(=O)C(C)C2C1OC(=O)N2CCCCc1cc(C(F)(F)F)nc2ccccc12` (centres unmarked) [Compound 20p]: the MIC in [1] (unit assumed) was determined as 0.1 µg/mL (≈ 0.118 µM); in [2] it was 0.2; in test [3], 6.25 µg/mL (≈ 7.35 µM); in test [4] (in µg/mL (unit assumed)), 0.2; in test [5] (in µg/mL (unit assumed)) it was 0.2; in [6] it was 0.4. Further, the MIC came to 0.78 µg/mL (≈ 0.918 µM) in [7] (unit assumed); 0.4 in test [8]; 0.1 µg/mL (≈ 0.118 µM) in [9] (unit assumed); 0.78 in test [10]; 6.25 µg/mL (≈ 7.35 µM) in [11]; 0.1 µg/mL (≈ 0.118 µM) in test [12] (unit assumed). In test [13], the MIC entry was “=0.05”.

Take `CCC1OC(=O)C(C)C(=O)C(C)C(OC2OC(C)CC(N(C)C)C2O)C(C)(OC)CC(C)C(=O)C(C)C2C1OC(=O)N2CCCCc1ccnc2c(C(F)(F)F)cccc12` (centres unmarked) [Compound 20q]: the MIC entry in test [1] is “=0.05”; in test [2], 0.2; in [3] it was 12.5 µg/mL (≈ 14.7 µM); in test [4] (in µg/mL (unit assumed)), 0.1; in test [5] (in µg/mL (unit assumed)), 0.1; in [6] it was 0.4. Further, the MIC is 0.2 µg/mL (≈ 0.235 µM) in test [7] (unit assumed); 0.4 in [8]; “=0.05” in [9]; 0.4 in test [10]; 1.56 µg/mL (≈ 1.84 µM) in [11]; “=0.05” in test [12]. The MIC entry in test [13] was “=0.05”.

Turning to `CCC1OC(=O)C(C)C(=O)C(C)C(OC2OC(C)CC(N(C)C)C2O)C(C)(OC)CC(C)C(=O)C(C)C2C1OC(=O)N2CCCOc1ccc(-c2cccnc2)cc1` (centres unmarked) [Compound 20r], the MIC in test [1] (unit assumed) is 0.1 µg/mL (≈ 0.123 µM); in [2], 3.13; in test [3], 50 µg/mL (≈ 61.7 µM); in [4] (in µg/mL (unit assumed)), 0.1; in test [5] (in µg/mL (unit assumed)), 1.56; in test [6] it was 1.56. In addition, the MIC in [7] (unit assumed) worked out at 25 µg/mL (≈ 30.9 µM); in test [8], 3.13; in test [9] (unit assumed), 0.1 µg/mL (≈ 0.123 µM); in [10], 1.56; in test [11], 25 µg/mL (≈ 30.9 µM); in test [12] (unit assumed) it was 0.4 µg/mL (≈ 0.494 µM). In test [13] (unit assumed), this molecule yielded an MIC of 0.1 µg/mL (≈ 0.123 µM).

Turning to `CCC1OC(=O)C(C)C(=O)C(C)C(OC2OC(C)CC(N(C)C)C2O)C(C)(OC)CC(C)C(=O)C(C)C2C1OC(=O)N2CCCOc1cccc(-c2cccnc2)c1` (centres unmarked) [Compound 20s], the MIC result in test [1] is “=0.05”; in test [2], 0.78; in test [3], 3.13 µg/mL (≈ 3.86 µM); in test [4], “=0.05”; in test [5] (in µg/mL (unit assumed)) it was 0.2; in [6] it was 0.4. Also, the MIC in [7] (unit assumed) was 0.2 µg/mL (≈ 0.247 µM); in test [8], 0.78; in [9], “=0.05”; in test [10] it was 0.78; in test [11], 12.5 µg/mL (≈ 15.4 µM); in test [12], “=0.05”. For the same molecule, the MIC entry in test [13] is on record as “=0.05”.

With `CCC1OC(=O)C(C)C(=O)C(C)C(OC2OC(C)CC(N(C)C)C2O)C(C)(OC)CC(C)C(=O)C(C)C2C1OC(=O)N2CCCCc1ncc(-c2ccccc2)s1` (centres unmarked) [Compound 20t], the MIC entry was “=0.05” in [1]; 0.78 in [2]; 12.5 µg/mL (≈ 15.4 µM) in test [3]; 0.1 in test [4] (in µg/mL (unit assumed)); 0.4 in test [5] (in µg/mL (unit assumed)); 0.4 in test [6]. Besides, the MIC in test [7] (unit assumed) is 1.56 µg/mL (≈ 1.92 µM); in [8], 0.78; in test [9] it was “=0.05”; in test [10], 1.56; in [11], 25 µg/mL (≈ 30.7 µM); in [12] (unit assumed), 0.2 µg/mL (≈ 0.246 µM). For the same molecule, the MIC entry in [13] is on record as “=0.05”.
